Consider 17 molecules from patent US9096549B2, “Selective HDAC3 inhibitors” (Acetylon Pharmaceuticals, Inc., priority 2013, dated 2015).

What all share (format): biochemical
Holding throughout (conditions): 24 hours pre-incubation with enzyme; tripeptide substrate 3 at Km

Experiment [1] concerns the target HDAC1 (Homo sapiens (Human), UniProt Q13547). The experiment in a line: HDAC enzyme assay, HDAC1. The procedure: (§1) Compounds for testing were diluted in DMSO to 50 fold the final concentration and a ten point three fold dilution series was made. The compounds were diluted in assay buffer (50 mM HEPES, pH 7.4, 100 mM KCl, 0.001% Tween-20, 0.05% BSA, […] tris(2-carboxyethyl)phosphine) to 6 fold their final concentration. The HDAC enzymes (purchased from BPS Biosciences) were diluted to 1.5 fold their final concentration in assay buffer and pre-incubated with the compounds for 24 hours prior to addition of the substrate.
(§2) The substrate tripeptide substrate 3 (synthesized in house) for each enzyme was equal to the Km as determined by a substrate titration curve. The substrates were diluted in assay buffer at 6× their final concentration with 0.3 μM sequencing grade trypsin (Sigma). The substrate/trypsin mix was added to the enzyme/compound mix, the plate was shaken for 60 seconds and placed into a Spectramax M5 microtiter plate reader. The development of fluorescence was monitored for 30 min. and the linear rate of the reaction was calculated. The IC50 was determined using Graph Pad Prism by a four parameter curve fit. The IC50 values obtained for the compounds of this invention are found in Table 1.

The target of experiment [2] is HDAC2 (Homo sapiens (Human), UniProt Q92769). The experiment in a line: HDAC enzyme assay, HDAC2. The method, then:
as §1, §2

In experiment [3] the target is HDAC3 (Homo sapiens (Human), UniProt O15379). The experiment in a line: HDAC enzyme assay, HDAC3. The method, then: as §1, §2
Sequence of HDAC3 (O15379 whole entry): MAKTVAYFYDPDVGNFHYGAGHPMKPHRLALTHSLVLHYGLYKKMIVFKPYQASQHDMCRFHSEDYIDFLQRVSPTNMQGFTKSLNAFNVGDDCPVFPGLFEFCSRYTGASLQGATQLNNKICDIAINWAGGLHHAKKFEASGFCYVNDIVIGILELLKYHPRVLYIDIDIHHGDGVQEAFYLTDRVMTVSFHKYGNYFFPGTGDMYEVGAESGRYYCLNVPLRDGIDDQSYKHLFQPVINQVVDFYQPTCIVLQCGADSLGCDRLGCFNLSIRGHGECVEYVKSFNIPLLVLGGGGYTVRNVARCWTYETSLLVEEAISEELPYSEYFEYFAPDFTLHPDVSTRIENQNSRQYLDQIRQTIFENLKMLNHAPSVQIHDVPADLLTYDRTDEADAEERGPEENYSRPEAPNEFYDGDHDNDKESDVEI
Sequence of HDAC3 (Q9Y618 395-489 partner): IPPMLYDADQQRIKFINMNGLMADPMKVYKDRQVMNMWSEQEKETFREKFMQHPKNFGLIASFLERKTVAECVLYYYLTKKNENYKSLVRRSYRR

Sequence of HDAC1 (Q13547 whole entry): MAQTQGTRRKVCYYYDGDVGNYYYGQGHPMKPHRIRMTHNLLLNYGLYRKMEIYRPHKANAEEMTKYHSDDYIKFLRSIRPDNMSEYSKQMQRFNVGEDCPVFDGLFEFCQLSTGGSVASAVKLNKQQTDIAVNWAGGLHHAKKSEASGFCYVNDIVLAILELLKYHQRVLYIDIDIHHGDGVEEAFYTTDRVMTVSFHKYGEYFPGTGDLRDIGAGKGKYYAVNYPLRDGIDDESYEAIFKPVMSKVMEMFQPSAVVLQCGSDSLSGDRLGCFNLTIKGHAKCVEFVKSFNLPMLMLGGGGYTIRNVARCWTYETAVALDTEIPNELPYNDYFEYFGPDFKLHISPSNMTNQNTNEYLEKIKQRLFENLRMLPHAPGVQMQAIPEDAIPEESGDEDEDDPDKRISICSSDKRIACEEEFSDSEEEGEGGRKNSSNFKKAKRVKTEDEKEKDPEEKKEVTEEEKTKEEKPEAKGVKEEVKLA
Sequence of HDAC2 (Q92769 whole entry): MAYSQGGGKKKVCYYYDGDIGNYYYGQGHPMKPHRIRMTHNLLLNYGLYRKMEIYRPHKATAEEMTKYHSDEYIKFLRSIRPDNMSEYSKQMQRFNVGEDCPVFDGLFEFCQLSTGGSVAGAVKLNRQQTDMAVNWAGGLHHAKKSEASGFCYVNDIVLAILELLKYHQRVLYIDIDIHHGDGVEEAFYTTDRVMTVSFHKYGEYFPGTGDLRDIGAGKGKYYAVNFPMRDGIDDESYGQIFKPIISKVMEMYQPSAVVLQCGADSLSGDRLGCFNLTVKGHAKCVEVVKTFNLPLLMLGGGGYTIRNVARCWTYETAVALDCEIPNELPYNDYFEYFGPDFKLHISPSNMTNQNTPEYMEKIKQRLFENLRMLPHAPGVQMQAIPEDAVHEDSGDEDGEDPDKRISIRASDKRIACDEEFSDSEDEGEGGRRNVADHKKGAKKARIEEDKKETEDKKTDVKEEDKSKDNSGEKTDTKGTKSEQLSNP

By IC50 is commonly meant the concentration that gives 50% inhibition. As for `Nc1cc(F)ccc1NC(=O)c1cc2ccc(N3CCNCC3)c(C3CC3)c2cn1` [Compound M], the figures for the IC50 in experiment [1], in experiment [2] and in experiment [3] were 462 nM, 228 nM and 30 nM, respectively.

Regarding `Nc1cc(F)ccc1NC(=O)c1ccc2c(c1)CC(=O)N2` [Compound C], the “IC50 (nM) HDAC1” value in experiment [1] is given as “No inhibition”. For the same molecule, the IC50 in experiment [2] is greater than 2000 nM; in experiment [3], 269 nM.

Regarding `Nc1ccccc1NC(=O)c1cc2ccc(N3CCNCC3)cc2cn1` [Compound K, N-(2-aminophenyl)-7-(piperazin-1-yl)isoquinoline-3-carboxamide], the IC50 was found to be 299 nM in experiment [1], 271 nM in experiment [2] and 38 nM in experiment [3].

With `Nc1ccc(F)cc1NC(=O)c1ccc2nc(N3CCNCC3)ccc2c1` [Compound R], the results for the IC50 in experiment [1], in experiment [2] and in experiment [3] were greater than 2000 nM, 1340 nM and 315 nM, respectively.

Regarding `Nc1ccc(F)cc1NC(=O)c1cnc2cc(N3CCNCC3)ccc2c1` [Compound Q, N-(2-amino-5-fluorophenyl)-7-(piperazin-1-yl)quinoline-3-carboxamide], the half-inhibitory concentration (IC50) in experiment [1] was greater than 2000 nM; in experiment [2] it was greater than 2000 nM; in experiment [3] it was 308 nM.

For `Nc1ccc(F)cc1NC(=O)c1cnc2c(C3CC3)c(N3CCNCC3)ccc2c1` [Compound A], the IC50 amounted to 468 nM in experiment [1], 455 nM in experiment [2] and 59 nM in experiment [3].

With `Nc1ccc(F)cc1NC(=O)c1ccc2nc(N3CCNCC3)cnc2c1` [Compound P], the IC50 in experiment [1] is greater than 2000 nM; in experiment [2], 1100 nM; in experiment [3], 235 nM.

As to `Nc1cc(F)ccc1NC(=O)c1cnc2c(C3CC3)c(N3CCNCC3)ccc2c1` [Compound I], the IC50 is greater than 2000 nM in experiment [1], 589 nM in experiment [2] and 57 nM in experiment [3].

`CN1CCN(c2ccc3cc(C(=O)Nc4ccc(F)cc4N)cnc3c2C2CC2)CC1` [Compound E]: the values for the concentration for half-maximal inhibition (IC50) in experiment [1], in experiment [2] and in experiment [3] were 1610 nM, 805 nM and 68 nM, respectively.

Turning to `Nc1cc(F)ccc1NC(=O)c1ccc2[nH]cnc2c1` [Compound D], in experiment [1], the “IC50 (nM) HDAC1” value is “No inhibition”. Also, the 50% inhibitory concentration (IC50) in experiment [2] is greater than 2000 nM; in experiment [3] it was 282 nM.

`Nc1cc(F)ccc1NC(=O)c1cnc2cc(N3CCNCC3)ccc2c1` [Compound J]: the “IC50 (nM) HDAC1” value in experiment [1] is given as “No inhibition”. Moreover, the values for the IC50 in experiment [2] and in experiment [3] were greater than 2000 nM and 470 nM, respectively.

Turning to `Nc1cc(F)ccc1NC(=O)c1cnc2cc(N3CCNCC3)ccc2n1` [Compound N], in experiment [1], the “IC50 (nM) HDAC1” value is listed as “No inhibition”. The “IC50 (nM) HDAC2” value in experiment [2] is on record as “No inhibition”. In experiment [3], this molecule registered an IC50 of 1300 nM.

As to `Nc1cc(F)ccc1NC(=O)c1ccc2c(cnn2CCN2CCOCC2)c1` [Compound H], the results for the IC50 in experiment [1], in experiment [2] and in experiment [3] were greater than 2000 nM, 1780 nM and 320 nM, respectively.

In the case of `Nc1ccccc1NC(=O)c1cnc2c(C3CC3)c(N3CCNCC3)ccc2c1` [Compound B], the half-inhibitory concentration (IC50) in experiment [1] was found to be 355 nM; in experiment [2], 372 nM; in experiment [3], 53 nM.

For `Nc1cc(F)ccc1NC(=O)c1cnc2c(ccn2CCN2CCOCC2)c1` [Compound G], the IC50 in experiment [1] is greater than 2000 nM; in experiment [2], 1530 nM; in experiment [3], 193 nM.

For the molecule `Nc1ccc(F)cc1NC(=O)c1cnc2cc(N3CCNCC3)ccc2n1` [Compound O], the IC50 in experiment [1] is greater than 2000 nM; in experiment [2], greater than 2000 nM; in experiment [3], 675 nM.

Consider `Nc1ccccc1NC(=O)c1cc2ccc(N3CCNCC3)c(C3CC3)c2cn1` [Compound L], for which the IC50 in experiment [1] came to 228 nM; in experiment [2], 212 nM; in experiment [3] it was 33 nM.
